Test results reported in ChEMBL document CHEMBL1201862, “PubChem BioAssay data set” (2004).
Activity calls are given as the source filed them.

Assays:
[1] = biological target: T1, Rac GTPase-activating protein 1 (Homo sapiens, UniProt Q9H0H5); test: blockers of MgcRacGAP-driven Rac1 GTP hydrolysis – biochemical, ADP Hunter fluorescence, primary and confirmatory, confirmation (AID 624330); format: functional
T1 sequence (Q9H0H5 whole entry): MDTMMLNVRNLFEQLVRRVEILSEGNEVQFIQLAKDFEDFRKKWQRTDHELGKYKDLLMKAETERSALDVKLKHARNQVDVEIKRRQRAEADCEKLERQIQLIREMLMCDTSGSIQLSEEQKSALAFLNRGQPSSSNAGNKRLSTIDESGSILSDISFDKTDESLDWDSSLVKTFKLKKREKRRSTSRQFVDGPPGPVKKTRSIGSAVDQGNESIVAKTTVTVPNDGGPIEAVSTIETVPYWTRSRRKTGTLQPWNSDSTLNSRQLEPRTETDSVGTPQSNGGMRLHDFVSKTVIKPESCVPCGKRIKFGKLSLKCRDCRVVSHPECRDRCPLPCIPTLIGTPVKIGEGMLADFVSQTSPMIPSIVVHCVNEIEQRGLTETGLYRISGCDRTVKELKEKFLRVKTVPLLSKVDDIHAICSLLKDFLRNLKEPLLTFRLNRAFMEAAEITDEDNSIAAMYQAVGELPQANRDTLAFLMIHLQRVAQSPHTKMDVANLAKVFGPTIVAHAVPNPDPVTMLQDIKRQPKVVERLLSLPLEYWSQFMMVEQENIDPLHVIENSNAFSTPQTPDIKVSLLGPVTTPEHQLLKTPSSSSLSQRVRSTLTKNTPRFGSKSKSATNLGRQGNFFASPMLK

[2] = biological target: T2, Calpain-2 catalytic subunit (Sus scrofa, UniProt P43367); test: m-calpain protease blockers, concentration series – biochemical, fluorogenic peptide substrate, dose response (AID 1420); format: functional
T2 sequence (P43367 whole entry): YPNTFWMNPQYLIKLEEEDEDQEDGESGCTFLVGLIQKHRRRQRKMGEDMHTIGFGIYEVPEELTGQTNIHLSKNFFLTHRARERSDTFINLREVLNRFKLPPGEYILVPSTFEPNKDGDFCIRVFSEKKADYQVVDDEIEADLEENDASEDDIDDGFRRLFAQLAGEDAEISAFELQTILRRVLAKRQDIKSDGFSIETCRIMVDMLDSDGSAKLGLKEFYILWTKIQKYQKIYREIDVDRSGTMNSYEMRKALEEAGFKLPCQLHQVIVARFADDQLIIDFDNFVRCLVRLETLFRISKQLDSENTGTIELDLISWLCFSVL

[3] = viability of uninfected HEp-2 cells – cell-based, HTS, cytotoxicity control for RSV inhibitor project, dose response (AID 2410); format: functional; settings: human respiratory syncytial virus
[4] = viability of PTEN-deleted HCT116 cells – cell-based, HCT116 PTEN knockout, dose response (AID 1047); format: functional;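 also: HCT116 colon tumor cells with PTEN knocked out; cells exposed to compound for 60 hours before readout; potency for loss of cell viability measured by luminescence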
[5] = viability of HCT116 lacking mutant beta-catenin – cell-based, human colon tumor, dose response (AID 1045); format: functional;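 also: HCT116 colon tumor cells with beta catenin knocked out; cells exposed to compound for 60 hours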
[6] = luciferase reporter signal suppression in cells – H4 neuroglioma cells, luminescence, dose response (AID 1990); format: functional, cell-based
[7] = Luminescence Cell-Based Dose Response HTS to Identify Inhibitors of 5'UTR Stem-Loop Driven Prion Protein mRNA Translation in H4 Neuroglioblastoma Cells. [Related pubchem assays: 1827 (Project Summary), 1813 (Primary HTS)]; format: functional
[8] = alpha-synuclein stem-loop luciferase translation blockers – H4 neuroglioma cells, luminescence, confirmation (AID 1988); format: functional, cell-based
[9] = Trypanosoma cruzi growth suppression in host cells – NIH3T3 host cells, beta-gal luminescence, confirmation (AID 2044); format: functional, cell-based;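 also: intracellular parasites grown in NIH/3T3 mouse fibroblasts as host cells; luminescent beta-galactosidase reporter signal from transgenic T. cruzi replicating inside host cells; inhibitors lower the luminescence signal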
[10] = NIH3T3 cell viability loss – ATP luminescence, mouse fibroblasts, counter-screen, dose response (AID 2010); format: functional, cell-based;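 also: cells exposed to compound for about 90 hours before reading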
[11] = NIH-3T3 fibroblast cytotoxicity, dose response, cytotoxicity control, cell-based, fluorescence, Alamar Blue, secondary assay (AID 2327); format: functional;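 also: NIH-3T3 mouse fibroblasts cultured with fluconazole at 8 µg/mL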
[12] = biological target: Cytochrome P450 2C9 (Homo sapiens, UniProt P11712)
[13] = tested on: INS1; test: INS-1E survival protection against cytokine death – cell-based, luminescence, retest, dose response (AID 449756); format: functional; settings: Rattus norvegicus;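 also: cell death triggered by IL-1 beta plus TNF-alpha plus IFN-gamma mixture; protective hits raise ATP signal compared with cytokine alone wells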
[14] = Luminescence Cell-Based Dose Retest to Confirm Inhibitors of Cancer Stem Cells. [Related pubchem assays (depositor defined):AID2717, AID2721]; format: functional; settings: Homo sapiens
[15] = tested on: Streptococcus sp. 'group A'; test: Streptococcus pyogenes SK(-)GAS viability under kanamycin – luminescence, BacTiterGlo, confirmation, counter-screen for streptokinase expression inhibitor project, dose response (AID 1900); format: functional, organism-based
[16] = tested on: Streptococcus; test: GAS UMAA2166 growth inhibition – luminescence, BacTiterGlo, counter-screen for streptokinase expression inhibitor project, dose response (AID 1915); format: functional, organism-based;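 also: potency for reduction of bacterial viability or growth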

Chain of Cytochrome P450 2C9 (P11712 whole entry): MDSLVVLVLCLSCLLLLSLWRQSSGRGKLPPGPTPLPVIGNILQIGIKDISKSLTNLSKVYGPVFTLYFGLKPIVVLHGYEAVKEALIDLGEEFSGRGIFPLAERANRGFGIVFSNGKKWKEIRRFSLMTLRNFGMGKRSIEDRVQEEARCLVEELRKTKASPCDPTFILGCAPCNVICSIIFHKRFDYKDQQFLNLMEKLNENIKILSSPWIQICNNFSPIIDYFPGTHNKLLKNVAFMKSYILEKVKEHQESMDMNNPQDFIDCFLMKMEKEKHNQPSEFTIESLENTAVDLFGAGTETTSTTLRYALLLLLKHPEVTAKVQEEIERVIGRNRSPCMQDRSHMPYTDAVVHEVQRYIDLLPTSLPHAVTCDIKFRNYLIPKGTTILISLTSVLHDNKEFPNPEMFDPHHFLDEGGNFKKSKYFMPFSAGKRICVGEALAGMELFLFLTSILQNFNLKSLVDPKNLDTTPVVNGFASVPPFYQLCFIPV

Structure (SMILES): Oc1ccc(NCc2ccccc2OCc2ccccc2F)cc1
- IC50 [1]: 71.4 µM (active)

Structure (SMILES): C=CCNc1cnn(-c2ccc(C)cc2)c(=O)c1Sc1ccc(C)cc1
- IC50 [2]: > 50 µM (not active)

Structure (SMILES): C=CCn1c(SCC(C)=O)nc2scc(-c3ccc(C)o3)c2c1=O
- CC50 [3]: 13.5 µM (active)

Structure (SMILES): O=[N+]([O-])C(=C1Nc2ccccc2N1)C(Cl)=C(Cl)Cl
- IC50 [2]: 27.8 µM (not active)

Structure (SMILES): Cc1ccc(C)c(OCC(O)CN2CCC(CN3C(=O)c4cccc5cccc(c45)C3=O)CC2)c1 (stereo not given)
- EC50 [4]: 4.42 µM (active)
- EC50 [5]: 4.8 µM (active)

Structure (SMILES): CC1=CC(C)(C)Nc2ccccc21
- EC50 [6]: > 120 µM (not active)
- EC50 [7]: > 120 µM (not active)
- EC50 [8]: > 120 µM (not active)
- EC50 [9]: 4.5 µM (active)
- EC50 [10]: > 60 µM (not active)

Structure (SMILES): Cc1ccc(N2NC3(CCN(C(N)=O)CC3)NC2=O)cc1
- EC50 [11]: 28.6 µM (active)

Structure (SMILES): COc1ccc(NC(=O)C2CCCN(S(=O)(=O)c3cccc4cccnc34)C2)c(OC)c1 (stereo not given)
- IC50 [2]: 4.57 µM (not active)

Structure (SMILES): Cc1cccc(Oc2ccc(S(=O)(=O)N3CCCCC3)cc2N)c1
- IC50 [2]: 11.2 µM (not active)

Structure (SMILES): CCOc1cc(C(=O)NCC(C)(C)CNC(=O)c2cc(OCC)c(OCC)c(OCC)c2)cc(OCC)c1OCC
- CC50 [3]: 27.7 µM (active)

Structure (SMILES): O=C(COC(=O)CC1c2ccccc2CCN1S(=O)(=O)c1ccccc1)Nc1ccccc1 (stereo not given)
- IC50 [2]: 8.09 µM (not active)

Structure (SMILES): CCCCc1nc2ccccc2c(NC(=O)CN2CCN(C)CC2)c1CCC
- IC50 [1]: 50.3 µM (active)

Structure (SMILES): N#CC1=C(N)Oc2cc(O)ccc2C1C1CCCCC1 (stereo not given)
- EC50 [4]: 12.1 µM (active)
- EC50 [5]: 13.2 µM (active)

Structure (SMILES): Cc1ccccc1N1C(=O)C(Oc2ccc(Cl)cc2)C1CNCCCOC(C)C (stereo not given)
- EC50 [6]: 27 µM (active)
- EC50 [7]: 119 µM (active)
- EC50 [8]: > 120 µM (not active)

Structure (SMILES): Oc1ccc(Cl)cc1-c1cc(C(F)(F)C(F)F)nc(-c2ccccc2)n1
- EC50 [6]: > 120 µM (not active)
- EC50 [7]: > 120 µM (not active)
- EC50 [8]: > 120 µM (not active)

Structure (SMILES): CCc1ccc2c(c1)c1nnc(NN)nc1n2CC
- EC50 [4]: 30.8 µM (active)
- EC50 [5]: 31.1 µM (active)

Structure (SMILES): N#Cc1cc([N+](=O)[O-])ccc1NC(=O)COC(=O)C12CC3CC(CC(C3)C1)C2
- IC50 [2]: 14.4 µM (not active)

Structure (SMILES): CS(=O)(=O)N1CCc2cc(NC(=O)c3ccc(Cl)cc3Cl)ccc21
- IC50 [2]: 13.7 µM (not active)

Structure (SMILES): CCc1ccc(-c2cc(C(=O)NCCCn3ccnc3)c3ccccc3n2)s1
- CC50 [3]: 28.4 µM (active)

Structure (SMILES): COc1cc(CNc2ncc(-c3ccc(Br)cc3)n2C)cc(OC)c1O
- IC50 [1]: 52 µM (active)

Structure (SMILES): OC(COc1ccc2cc(Br)ccc2c1)CN1CCCC1 (stereo not given)
- EC50 [9]: 3.4 µM (active)
- EC50 [4]: 17 µM (active)
- EC50 [10]: 11.5 µM (active)
- EC50 [5]: 15.6 µM (active)

Structure (SMILES): Cc1cc(N)n(-c2ccc3ccccc3c2)n1
- AC50 [12]: 35.5 µM (inconclusive)

Structure (SMILES): Oc1c([C@H](Nc2ccccn2)c2ccccc2)ccc2cccnc12
- AC50 [12]: 6.31 µM (inconclusive)

Structure (SMILES): O=C(C1=C[C@H](c2ccc(C(F)(F)F)cc2)C[C@H](OCc2ccc(CO)cc2)O1)N1CCCCCCC1
- IC50 [2]: 14.8 µM (not active)

Structure (SMILES): CC1CCCCN1C(=O)c1cc(-c2ccc(Cl)c(Cl)c2)on1 (stereo not given)
- IC50 [2]: 3.9 µM (not active)

Structure (SMILES): Cc1nc(C(=O)O)nn1-c1ccc([N+](=O)[O-])cc1
- EC50 [6]: > 120 µM (not active)
- EC50 [7]: 118 µM (active)
- EC50 [8]: > 120 µM (not active)

Structure (SMILES): COc1ccc(Br)cc1CN1CCN(C(=O)c2ccc(F)cc2)CC1
- IC50 [1]: 212 µM (active)

Structure (SMILES): CC(=O)NC(=S)Nc1ccc(-c2nc3ccc(C)cc3s2)cc1
- EC50 [4]: 50 µM (active)
- EC50 [5]: 112 µM (active)

Structure (SMILES): Cc1ccnc(NC(=O)CCCOc2ccc(Cl)cc2C)c1
- IC50 [2]: 0.444 µM (not active)

Structure (SMILES): COc1ccc(C2/C=C\CN(C(=O)Nc3ccc(C(F)(F)F)cc3)CC(=O)N2Cc2ccc(F)cc2)cc1 (stereo not given)
- EC50 [6]: 10.2 µM (active)
- EC50 [7]: > 120 µM (not active)
- EC50 [8]: 10.8 µM (active)
- AC50 [13]: 6.64 µM (active)

Structure (SMILES): CCOC(=S)SCC(=O)Nc1nc(-c2ccc(Br)cc2)cs1
- EC50 [6]: 8.41 µM (active)
- EC50 [7]: 8.99 µM (active)
- EC50 [8]: 5.28 µM (active)
- AC50 [14]: 0.722 µM (active)

Structure (SMILES): O=[N+]([O-])c1cc(C(F)(F)F)ccc1NCCN=C(S)Nc1ccc(Cl)cc1
- EC50 [15]: 7.05 µM (active)
- EC50 [4]: 11.7 µM (active)
- EC50 [5]: 14.9 µM (active)
- EC50 [16]: 7.65 µM (active)
- AC50 [14]: 3.04 µM (active)

Structure (SMILES): COc1ccc2cc(Br)ccc2c1CC(=O)NC1CC(C)(C)NC(C)(C)C1
- EC50 [4]: 20.4 µM (active)
- EC50 [5]: 20.8 µM (active)

Structure (SMILES): CCOc1ccc(C(=O)C[n+]2ccccc2C)cc1
- EC50 [6]: > 120 µM (not active)
- EC50 [8]: > 120 µM (not active)

Structure (SMILES): CC(=O)c1nn(-c2cccc(Br)c2)cc1C(=O)c1ccc(C)cc1
- EC50 [11]: > 150 µM (inactive)

Structure (SMILES): C=CCn1c(S)nnc1-c1cc2cccc(OC)c2o1
- CC50 [3]: 21.4 µM (active)

Structure (SMILES): Cc1c2c(nc3ccccc13)CCC(C)C2 (stereo not given)
- CC50 [3]: > 50 µM (active)

Structure (SMILES): CN(C1CCCCC1)S(=O)(=O)c1ccc(S(=O)(=O)N2CCCC2)cc1
- IC50 [2]: 10.4 µM (not active)

Structure (SMILES): O=c1c2ccccc2nc(CSc2nnnn2-c2ccccc2)n1-c1ccccc1
- EC50 [4]: 18.1 µM (active)
- EC50 [5]: 17.6 µM (active)

Structure (SMILES): COc1cc(C=O)ccc1OCCCOc1ccccc1C(=O)O
- AC50 [12]: 17.8 µM (inconclusive)

Structure (SMILES): Cc1cccc(NC(=O)Nc2cccc(C#N)c2)n1
- CC50 [3]: > 50 µM (active)

Structure (SMILES): CCOC(=O)c1c(NC(=O)C2=C(C)N=C(S)NC2c2ccc(F)cc2)sc(C)c1C (stereo not given)
- EC50 [6]: > 120 µM (not active)
- EC50 [7]: > 120 µM (not active)
- EC50 [8]: > 120 µM (not active)

Structure (SMILES): Oc1ccc(C=NNc2nc3ccccc3s2)c(O)c1
- IC50 [1]: 88.4 µM (active)

Structure (SMILES): O=C(N/N=C/c1ccc(O)cc1)c1ccc(COc2cc(Cl)ccc2Cl)o1
- AC50 [12]: 6.31 µM (inconclusive)

Structure (SMILES): C/C(=N\NC(=O)COc1ccc(C(C)(C)C)cc1)c1ccccc1
- IC50 [2]: 5.74 µM (not active)

Structure (SMILES): CCc1ccc(/C(C)=N\Nc2ccc([N+](=O)[O-])cc2)cc1
- EC50 [11]: > 160 µM (inactive)

Structure (SMILES): COc1ccc(CN2CCN(Cc3c[nH]c4ccccc34)CC2)c(OC)c1
- IC50 [1]: 104 µM (active)

Structure (SMILES): COc1cc(/C=N/NC(=O)c2ccc3c(c2)OCO3)ccc1O
- IC50 [1]: 28.5 µM (active)

Structure (SMILES): CN(C)c1ccc(/C=N/N2CCN(Cc3ccccc3Cl)CC2)cc1
- IC50 [1]: 69.6 µM (active)

Structure (SMILES): CC(=O)O/N=C/c1c(NCc2ccccc2)nc2c(C)cccn2c1=O
- CC50 [3]: 31.1 µM (active)

Structure (SMILES): C/C(=N\Nc1ccc([N+](=O)[O-])cc1)c1ccc(N)cc1
- IC50 [1]: 109 µM (active)

Structure (SMILES): FC(F)(F)c1cccc(N2CCC(/N=C/N3CCCCCC3)=N2)c1
- IC50 [1]: 56.4 µM (active)

Structure (SMILES): Nc1ccc(S(=O)(=O)Nc2cnc3ccccc3n2)cc1 [SULFAQUINOXALINE]
- AC50 [12]: 3.98 µM (inconclusive)
